Data on eight molecules can be found in US9309235B2, “SGC stimulators” (IRONWOOD PHARMACEUTICALS, INC., priority 2012, dated 2016).

The structures appear in SMILES notation.

What is called EC50 is the midpoint of the concentration-response curve. Usually Emax stands for the greatest response seen or fitted, relative to the assay's reference.

Experiment [1] concerns lambs with acute pulmonary hypertension. The following applies: cited from earlier work; for effect on mean arterial pressure / pulmonary vasodilation / transpulmonary cGMP release / systemic arterial oxygenation: inhaled microparticles, awake lambs; for effect on mean arterial pressure / pulmonary vasodilation / transpulmonary cGMP release: U-46619 infusion.
In experiment [2] the target is T1, Human soluble guanylate cyclase enzyme (hsGC) (Homo sapiens, UniProt Q02108+Q02153).
T1 construct: purchased Enzo Inc. ALX-201-177
T1 sequence (Q02153 1-619): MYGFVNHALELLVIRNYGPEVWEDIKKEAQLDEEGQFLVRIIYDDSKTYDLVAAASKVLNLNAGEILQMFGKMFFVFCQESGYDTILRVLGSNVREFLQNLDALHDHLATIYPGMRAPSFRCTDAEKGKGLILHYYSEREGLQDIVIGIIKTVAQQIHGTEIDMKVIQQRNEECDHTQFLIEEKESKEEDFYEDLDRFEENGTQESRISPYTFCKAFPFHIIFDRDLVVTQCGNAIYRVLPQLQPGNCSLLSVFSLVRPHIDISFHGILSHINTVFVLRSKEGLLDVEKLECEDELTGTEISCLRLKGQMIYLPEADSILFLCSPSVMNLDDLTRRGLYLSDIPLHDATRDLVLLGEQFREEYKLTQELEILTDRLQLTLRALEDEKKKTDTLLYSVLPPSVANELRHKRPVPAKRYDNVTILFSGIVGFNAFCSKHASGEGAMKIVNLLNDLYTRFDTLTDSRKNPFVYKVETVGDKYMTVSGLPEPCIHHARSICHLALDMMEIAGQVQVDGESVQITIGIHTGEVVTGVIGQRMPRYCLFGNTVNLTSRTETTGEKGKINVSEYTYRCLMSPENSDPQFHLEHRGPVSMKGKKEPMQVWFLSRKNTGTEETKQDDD
T1 sequence (Q02108 1-690): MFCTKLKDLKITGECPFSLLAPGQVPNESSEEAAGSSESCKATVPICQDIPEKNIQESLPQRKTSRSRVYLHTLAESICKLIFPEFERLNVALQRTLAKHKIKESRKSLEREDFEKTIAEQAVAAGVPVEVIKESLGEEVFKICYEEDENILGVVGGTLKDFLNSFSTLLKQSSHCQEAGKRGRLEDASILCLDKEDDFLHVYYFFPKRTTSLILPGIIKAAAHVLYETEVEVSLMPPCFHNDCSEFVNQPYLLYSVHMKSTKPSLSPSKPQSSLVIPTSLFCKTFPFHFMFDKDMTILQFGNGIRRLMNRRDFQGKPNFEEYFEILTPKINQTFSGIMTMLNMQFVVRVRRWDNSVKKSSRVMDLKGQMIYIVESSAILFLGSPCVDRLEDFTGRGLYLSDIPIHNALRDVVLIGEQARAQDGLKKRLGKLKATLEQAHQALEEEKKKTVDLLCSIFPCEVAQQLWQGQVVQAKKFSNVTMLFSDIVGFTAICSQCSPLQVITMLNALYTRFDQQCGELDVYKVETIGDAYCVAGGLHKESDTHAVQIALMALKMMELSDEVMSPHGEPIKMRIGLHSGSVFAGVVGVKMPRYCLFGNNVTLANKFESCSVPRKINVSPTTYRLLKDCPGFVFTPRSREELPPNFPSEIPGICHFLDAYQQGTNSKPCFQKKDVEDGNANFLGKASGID
Briefly: Purified human sGC enzyme synergy assay in the presence of sodium nitroprusside (SNP). The following applies: 30 μM compound in the presence of 1 μM SNP; fold increase over DMSO controls. Type of experiment: biochemical. As to the method: Human soluble guanylate cyclase enzyme (hsGC) obtained from Enzo Inc. (P/N: ALX-201-177) was used to evaluate the activity of test compounds. The assay reactions contained 0.1 M Tris (pH 8.0), 0.5 mg/mL BSA (pH 8.0), 2 mM DTT, 2 mM MgCl2, 300 μM GTP, 1 mM 3-isobutyl-1-methylxanthine (IBMX) and 5 ng human soluble guanylate cyclase enzyme. Test compounds in DMSO were then added (2 μL, 10 or 30 μM final concentration) and incubated (water, 200 μL, 96-well plate format) at 37° C. for 30 minutes. The controls were carried out using 2 μL DMSO. After the 30 minute incubation, the reaction was stopped with the addition of 200 μL of cold methanol. The plate was then centrifuged at 3,200 rpm for 10 minutes at room temperature. Supernatants (200 μL) were collected and transferred to a new 96 well plate for analysis by HPLC LC/MS/MS.
An 8 point cGMP (Sigma-Aldrich P/N: G6129) standard curve was prepared in assay buffer ranging from 0.156-20 μM. Samples for the cGMP standard curve were then diluted with an equal volume of methanol resulting in final cGMP concentrations of 0.078-10 μM.
The cGMP standard curve was generated using GraphPad Prism Software.
Calculations: Specific Activity was determined by the amount of cGMP formed (nmoles) per mg of sGC per min. Enzyme “fold-change” was calculated by dividing Specific Activity for test compounds by Specific Activity of DMSO controls. […]

The target of experiment [3] is T2, soluble guanylate cyclase (sGC) (Homo sapiens, UniProt Q02108+Q02153).
T2 construct: endogenously expressing soluble guanylate cyclase (sGC); endogenous in cells; host or cells: HEK293
T2 sequence (Q02153 1-619): T1 sequence (Q02153 1-619)
T2 sequence (Q02108 1-690): T1 sequence (Q02108 1-690)
Briefly: sGC-HEK-cGMP assay (run with SNP incubation). Type of experiment: cell-based. Particulars: for EC50: full concentration-response curve, with SNP incubation, read-out: HEK assay EC50-unconstrained; for EC50 / Emax: top not fitted to 100%; for Emax: maximum activity from full concentration-response curve, relative to positive control BAY 41-2272, read-out: HEK assay Emax-unconstrained (Percent); for Emax at 1 µM: test compound 1 μM, read-out: HEK assay (Percent Emax at 1 μM); for Emax at 1 µM / Emax at 10 µM / Emax at 30 µM: 10 μM SNP, Emax = 100% is BAY 41-2272 at 10 μM in the presence of 100 μM SNP; for Emax at 10 µM: test compound 10 μM, read-out: HEK assay (Percent Emax at 10 μM); for Emax at 30 µM: test compound 30 μM, read-out: HEK assay (Percent Emax at 30 μM). As to the method: (Assay Run with SNP Incubation)
Human embryonic kidney cells (HEK293), endogenously expressing soluble guanylate cyclase (sGC), were used to evaluate the activity of test compounds. Compounds stimulating the sGC receptor should cause an increase in the intracellular concentration of cGMP. HEK 293 cells were seeded in Dulbecco's Modification of Eagle's Medium supplemented with fetal bovine serum (10% final) and L-glutamine (2 mM final) in a 200 μL volume at a density of 1×10^5 cells/well in a poly-D-lysine coated 96 well flat bottom plate and grown overnight at 37° C. Medium was aspirated and cells were washed with 1× Hank's Buffered Saline Salt Solution (200 μL). Cells were then incubated for 15 minutes at 37° C. with 200 μL of a 0.5 mM 3-isobutyl-1-methylxanthine (IBMX) solution. Test article and sodium nitroprusside solutions (x μM concentration for test article solution and 10 μM concentration for SNP solution; wherein x is one of the following concentrations);
were then added to the assay mixture (2 μL each) and the resulting mixture incubated at 37° C. for 10 minutes. After the 10 minute incubation, the assay mixture was aspirated and 0.1M HCl (200 μL) was added to the cells. The plate was incubated at 4° C. for 30 minutes in the 0.1M HCl to stop the reaction and lyse the cells. The plates were then centrifuged at 1,200 g for 5 minutes at room temperature. Supernatants were collected and transferred to a new flat bottom 96 well plate for analysis by HPLC-MS. Vehicle controls were carried out using DMSO (1%) solutions. A known sGC stimulator, BAY 41-2272, was used as the positive control. Samples were diluted with an equal volume of 1 M Ammonium Acetate (pH 7) to neutralize samples for better chromatography. A 2× cGMP standard solution was prepared in 0.1 M HCl and then diluted with an equal volume of 1 M Ammonium Acetate, with the following final concentrations in nM: 1024, 512, 256, 128, 64, 32, 16, 8, 4, 2, 1. cGMP concentrations in the test plates were determined from each sample using the LC/MS conditions shown in Table 2 below and the calculated cGMP standard curve. EC50 values were calculated from concentration-response curves generated with GraphPad Prism Software.
The biological activities of some of the compounds of Formula I determined with the sGC—HEK assay with SNP incubation are summarized in Tables 3A and 3B.

`Nc1nc(-c2nn(Cc3ccccc3F)c3ncccc23)ncc1C1CC1` [BAY 41-2272]: in experiment [1], the “effect on mean arterial pressure” value was “without significant effect”, the pulmonary vasodilation entry is “dose dependent pulmonary vasodilation” and the “transpulmonary cGMP release” value was “increased transpulmonary cGMP release”.

As for `Nc1nc(-c2nn(Cc3ccccc3F)c3ncccc23)nc(N)c1N1CCOCC1` [BAY 41-8543], in experiment [1] (after inhaling microparticles), the “magnitude and duration of pulmonary vasodilation induced by iNO” value is “augmented”. Also, in experiment [1], the “effect on mean arterial pressure” value is “without significant effect”, the pulmonary vasodilation result was “dose dependent pulmonary vasodilation”, the “transpulmonary cGMP release” value is “increased transpulmonary cGMP release” and the systemic arterial oxygenation result is on record as “increased systemic arterial oxygenation”.

In the case of `O=C(O)CCCCN(CCc1ccccc1OCc1ccc(CCc2ccccc2)cc1)Cc1ccc(C(=O)O)cc1` [BAY 58-2667], in experiment [1] (inhaled microparticles after intravenous ODQ), the “pulmonary vasodilation and transpulmonary cGMP release after treatment with ODQ” value is given as “greatly enhanced”. Moreover, in experiment [1], the “effect on mean arterial pressure” value is listed as “without significant effect”, the pulmonary vasodilation entry was “dose dependent pulmonary vasodilation”, the “transpulmonary cGMP release” value is recorded as “increased transpulmonary cGMP release” and the systemic arterial oxygenation result was “increased systemic arterial oxygenation”.

As to `Nc1ccnc(-c2cc(-c3ccon3)n(Cc3ccsc3)n2)n1` [Compound I-1], in experiment [2], the “Enzyme Activity (increase at 30 μM with SNP)” value is listed as “D (D = 10 or <20 fold increase)”. In addition, in experiment [3], the EC50 lay within 1000 to 5000 nM, the Emax was 60 to 80%, the maximal response (Emax) at 1 µM was 20 to 40% and the maximal response (Emax) at 10 µM fell in the range of 40 to 60%. The Emax at 30 µM in experiment [3] was 60 to 80%.

For `Oc1nc(-c2cc(-c3ccon3)n(Cc3ccsc3)n2)ncc1F` [Compound I-2], in experiment [2], the “Enzyme Activity (increase at 30 μM with SNP)” value is on record as “D (D = 10 or <20 fold increase)”. Further, in experiment [3], the EC50 lay in the range of 500 to 1000 nM, the Emax is 40 to 60%, the Emax at 1 µM was 20 to 40% and the Emax at 10 µM is 40 to 60%. Moreover, the Emax at 30 µM in experiment [3] was in the range of 40 to 60%.

As for `Oc1nc(-c2cc(-c3ccon3)n(Cc3sccc3F)n2)ncc1F` [Compound I-3], in experiment [3], the EC50 lay within 10 to 100 nM, the Emax was in the range of 40 to 60%, the Emax at 1 µM lay in the range of 40 to 60% and the Emax at 10 µM lay in the range of 40 to 60%. The Emax at 30 µM in experiment [3] lay in the range of 60 to 80%.

Consider `Oc1nc(-c2cc(-c3ccon3)n(Cc3cccs3)n2)ncc1F` [Compound I-4], for which, in experiment [3], the EC50 was 5000 to 10000 nM, the Emax was in the range of 60 to 80%, the Emax at 1 µM lay in the range of 0 to 10% and the Emax at 10 µM lay in the range of 40 to 60%. In addition, in experiment [3], the Emax at 30 µM is 40 to 60%.

As for `O=c1onc2cnc3ccccc3n12` [ODQ, 1H-[1,2,4]oxadiazolo[4,3-a]quinoxalin-1-one], in experiment [1] (intravenous administration), the “pulmonary vasodilator effect of iNO” value was “markedly reduced”.
